≈ marks a conversion by molar mass, not a printed value. Each block holds one compound with its values, some of them ahead of it.
Columns and labels:
HepG2 = experiment: Antiproliferative activity against human HepG2 cells by MTT assay; assay type: functional, cell-based
Bel-7402 = experiment: Antiproliferative activity against human Bel-7402 cells by MTT assay; assay type: functional, cell-based
[1] = Clearance in ICR mouse at 45 mg/kg, po measured after 0.083 to 12 hrs by UPLC-MS/MS analysis; assay type: ADME, organism-based; settings: in vivo, time 0.083-12 hrs
[2] = MRT (0 to t) in ICR mouse at 45 mg/kg, po measured after 0.083 to 12 hrs by UPLC-MS/MS analysis; assay type: ADME, organism-based; settings: in vivo, time 0.083-12 hrs
[3] = Solubility of the compound in saline/PEG400 (95/5% V/V) at pH 7.4; assay type: physicochemical
[4] = MRT (0 to t) in ICR mouse at 10 mg/kg, iv measured after 0.083 to 12 hrs by UPLC-MS/MS analysis; assay type: ADME, organism-based; settings: in vivo, time 0.083-12 hrs
[5] = Cmax in ICR mouse at 10 mg/kg, iv measured after 0.083 to 12 hrs by UPLC-MS/MS analysis; assay type: ADME, organism-based; set-up: time 0.083-12 hrs, dose 10 mg/kg, route iv; settings: in vivo
[6] = Apparent volume of distribution in ICR mouse at 45 mg/kg, po measured after 0.083 to 12 hrs by UPLC-MS/MS analysis; assay type: ADME, organism-based; settings: in vivo, time 0.083-12 hrs
[7] = AUC(0 to t) in ICR mouse at 10 mg/kg, iv measured after 0.083 to 12 hrs by UPLC-MS/MS analysis; assay type: ADME, organism-based; set-up: time upper 12 hrs, dose 10 mg/kg, time lower 0.083 hrs, route iv; settings: in vivo
[8] = Oral bioavailability in ICR mouse at 45 mg/kg measured after 0.083 to 12 hrs by UPLC-MS/MS analysis; assay type: ADME, organism-based; settings: in vivo, time 0.083-12 hrs
[9] = Solubility of the compound in 0.9% NaCl at pH 7.4; assay type: physicochemical
[10] = Acute toxicity in ip dosed ICR mouse assessed as maximum tolerated dose; assay type: organism-based; settings: in vivo
[11] = AUC (0 to t) in ICR mouse at 45 mg/kg, po measured after 0.083 to 12 hrs by UPLC-MS/MS analysis; assay type: ADME, organism-based; set-up: dose 45 mg/kg, time upper 12 hrs, time lower 0.083 hrs, route po; settings: in vivo
[12] = Solubility of the compound in saline/DMSO/solutol HS-15 (85/5/10% V/V/V) at pH 7.4; assay type: physicochemical
[13] = Acute toxicity in po dosed ICR mouse assessed as maximum tolerated dose; assay type: organism-based; settings: in vivo
[14] = Apparent volume of distribution in ICR mouse at 10 mg/kg, iv measured after 0.083 to 12 hrs by UPLC-MS/MS analysis; assay type: ADME, organism-based; settings: in vivo, time 0.083-12 hrs, read-out: Vz
[15] = Solubility of the compound in saline/solutol HS-15 (90/10% V/V) at pH 7.4; assay type: physicochemical
[16] = Solubility of the compound in saline/solutol HS-15 (95/5% V/V) at pH 7.4; assay type: physicochemical
[17] = Cmax in ICR mouse at 45 mg/kg, po measured after 0.083 to 12 hrs by UPLC-MS/MS analysis; assay type: ADME, organism-based; set-up: dose 45 mg/kg, time upper 12 hrs, time lower 0.083 hrs, route po; settings: in vivo
[18] = Solubility of the compound in PBS/DMSO (95/5% V/V) at pH 7.2 to 7.4; assay type: physicochemical
[19] = Clearance in ICR mouse at 10 mg/kg, iv measured after 0.083 to 12 hrs by UPLC-MS/MS analysis; assay type: ADME, organism-based; settings: in vivo, time 0.083-12 hrs
[20] = Solubility of the compound in saline/DMSO (95/5% V/V) at pH 7.4; assay type: physicochemical
[21] = Solubility of the compound in saline/PEG400 (80/20% V/V) at pH 7.4; assay type: physicochemical
[22] = Half life in ICR mouse at 45 mg/kg, po measured after 0.083 to 12 hrs by UPLC-MS/MS analysis; assay type: ADME, organism-based; settings: in vivo, time 0.083-12 hrs
[23] = Half life in ICR mouse at 10 mg/kg, iv measured after 0.083 to 12 hrs by UPLC-MS/MS analysis; assay type: ADME, organism-based; settings: in vivo, time 0.083-12 hrs

- IC50 (HepG2): > 1000 nM
Compound: C[C@H]1CCC/C=C/[C@@H]2C[C@H](OC(=O)NCCO)C[C@H]2[C@H](O)/C=C/C(=O)O1

- IC50 (HepG2): > 1000 nM
Compound: C[C@H]1CCC/C=C/[C@@H]2C[C@H](OC(=O)c3cncc(F)c3)C[C@H]2[C@H](OC(=O)c2cncc(F)c2)/C=C/C(=O)O1

- IC50 (HepG2): > 1000 nM
Compound: C[C@H]1CCC/C=C/[C@@H]2C[C@H](OC(=O)NCc3ccccc3)C[C@H]2[C@H](O)/C=C/C(=O)O1

- IC50 (HepG2): 290 nM
Compound: C[C@H]1CCC/C=C/[C@@H]2C[C@H](OC(=O)c3ccccn3)C[C@H]2[C@H](O)/C=C/C(=O)O1

- IC50 (HepG2): 340 nM
Compound: C[C@H]1CCC/C=C/[C@@H]2C[C@H](OC(=O)c3ccccn3)C[C@H]2[C@H](OC(=O)c2ccccn2)/C=C/C(=O)O1

Compound: COc1ccc(COC(=O)O[C@@H]2C[C@H]3[C@H](O)/C=C/C(=O)O[C@@H](C)CCC/C=C/[C@@H]3C2)cn1
- IC50 (HepG2): > 1000 nM

- IC50 (HepG2): > 1000 nM
Compound: C[C@H]1CCC/C=C/[C@@H]2C[C@H](OC(=O)NCc3ccncc3)C[C@H]2[C@H](O)/C=C/C(=O)O1

Compound: C[C@H]1CCC/C=C/[C@@H]2C[C@H](OC(=O)OCc3cncc(F)c3)C[C@H]2[C@H](O)/C=C/C(=O)O1
- IC50 (HepG2): > 1000 nM

- IC50 (Bel-7402): > 1000 nM
- IC50 (HepG2): > 1000 nM
Compound: C[C@H]1CCC/C=C/[C@@H]2C[C@H](OC(=O)c3cccnc3)C[C@H]2[C@H](OC(=O)c2cccnc2)/C=C/C(=O)O1

- IC50 (HepG2): > 1000 nM
Compound: Cc1cncc(C(=O)O[C@@H]2/C=C/C(=O)O[C@@H](C)CCC/C=C/[C@@H]3C[C@H](O)C[C@H]32)c1

Compound: C[C@H]1CCC/C=C/[C@@H]2C[C@H](OC(=O)OCc3cnc4ccccc4c3)C[C@H]2[C@H](O)/C=C/C(=O)O1
- IC50 (HepG2): > 1000 nM

- IC50 (Bel-7402): 270 nM
- IC50 (HepG2): > 1000 nM
Compound: C[C@H]1CCC/C=C/[C@@H]2C[C@H](O)C[C@H]2[C@H](OC(=O)OCc2cccnc2)/C=C/C(=O)O1

- IC50 (HepG2): 650 nM
Compound: C[C@H]1CCC/C=C/[C@@H]2C[C@H](O)C[C@H]2[C@H](OC(=O)c2ccncc2)/C=C/C(=O)O1

- IC50 (HepG2): > 1000 nM
Compound: C[C@H]1CCC/C=C/[C@@H]2C[C@H](OC(=O)c3ccncc3)C[C@H]2[C@H](OC(=O)c2ccncc2)/C=C/C(=O)O1

- IC50 (HepG2): > 1000 nM
Compound: Cc1cncc(C(=O)O[C@@H]2C[C@H]3[C@H](O)/C=C/C(=O)O[C@@H](C)CCC/C=C/[C@@H]3C2)c1

Compound: C[C@H]1CCC/C=C/[C@@H]2C[C@H](OC(=O)OCc3ccncc3)C[C@H]2[C@H](O)/C=C/C(=O)O1
- IC50 (Bel-7402): > 1000 nM
- IC50 (HepG2): > 1000 nM

- IC50 (Bel-7402): > 1000 nM
- IC50 (HepG2): 390 nM
Compound: COc1cccc2c1C(=O)c1c(O)c3c(c(O)c1C2=O)C[C@@](O)(C(=O)CO)C[C@@H]3O[C@H]1C[C@H](N)[C@H](O)[C@H](C)O1 [DOXORUBICIN]

- IC50 (HepG2): 460 nM
Compound: C[C@H]1CCC/C=C/[C@@H]2C[C@H](OC(=O)c3ccncc3)C[C@H]2[C@H](O)/C=C/C(=O)O1

Compound: C[C@H]1CCC/C=C/[C@@H]2C[C@H](OC(=O)OCc3cccnc3)C[C@H]2[C@H](OC(=O)OCc2cccnc2)/C=C/C(=O)O1
- IC50 (Bel-7402): 430 nM
- IC50 (HepG2): > 1000 nM

Compound: C[C@H]1CCC/C=C/[C@@H]2C[C@H](OC(=O)OCCc3cccnc3)C[C@H]2[C@H](O)/C=C/C(=O)O1
- IC50 (Bel-7402): > 1000 nM
- IC50 (HepG2): 850 nM

- IC50 (HepG2): 960 nM
Compound: C[C@H]1CCC/C=C/[C@@H]2C[C@H](O)C[C@H]2[C@H](OC(=O)c2ccccn2)/C=C/C(=O)O1

- IC50 (HepG2): > 1000 nM
Compound: C[C@H]1CCC/C=C/[C@@H]2C[C@H](OC(=O)Nc3ccccc3)C[C@H]2[C@H](O)/C=C/C(=O)O1

- IC50 (HepG2): > 1000 nM
Compound: C[C@H]1CCC/C=C/[C@@H]2C[C@H](OC(=O)OCCS)C[C@H]2[C@H](O)/C=C/C(=O)O1

Compound: C[C@H]1CCC/C=C/[C@@H]2C[C@H](O)C[C@H]2[C@H](O)/C=C/C(=O)O1 [BREFELDIN A]
- CL/F [1]: 173 mL/min/kg
- MRT last [2]: 1.4 h
- solubility [3]: < 1000 µg/mL
- MRT last [4]: 0.84 h
- Cmax [5]: 13200 ng/mL
- IC50 (Bel-7402): 70 nM
- Vz [6]: 31.87132 L/kg
- AUC(0-t) [7]: 4840 ng·h/mL
- bioavailability [8]: 19%
- solubility [9]: < 1000 µg/mL
- MTD [10]: < 50 mg/kg
- AUC(0-t) [11]: 4130 ng·h/mL
- IC50 (HepG2): 80 nM
- solubility [12]: 1000 µg/mL (≈ 3.57 mM)
- MTD [13]: < 506 mg/kg
- Vd [14]: 20.6 L/kg
- solubility [15]: < 1000 µg/mL
- solubility [16]: < 1000 µg/mL
- Cmax [17]: 7140 ng/mL
- solubility [18]: < 1000 µg/mL
- clearance [19]: 26.3 mL/min/kg
- solubility [20]: < 1000 µg/mL
- solubility [21]: < 1000 µg/mL
- half-life [22]: 2.12 h
- half-life [23]: 9.05 h

- IC50 (HepG2): 930 nM
Compound: C[C@H]1CCC/C=C/[C@@H]2C[C@H](O)C[C@H]2[C@H](OC(=O)c2cncc(F)c2)/C=C/C(=O)O1

- IC50 (HepG2): > 1000 nM
Compound: C[C@H]1CCC/C=C/[C@@H]2C[C@H](OC(=O)NCc3cccnc3)C[C@H]2[C@H](O)/C=C/C(=O)O1

Compound: C[C@H]1CCC/C=C/[C@@H]2C[C@H](OC(=O)OCc3ccccn3)C[C@H]2[C@H](O)/C=C/C(=O)O1
- IC50 (HepG2): > 1000 nM

- IC50 (HepG2): > 1000 nM
Compound: C[C@H]1CCC/C=C/[C@@H]2C[C@H](OC(=O)OCCSSCCO)C[C@H]2[C@H](O)/C=C/C(=O)O1

- IC50 (HepG2): 680 nM
Compound: C[C@H]1CCC/C=C/[C@@H]2C[C@H](OC(=O)c3cncc(F)c3)C[C@H]2[C@H](O)/C=C/C(=O)O1

- solubility [3]: < 1000 µg/mL
- IC50 (Bel-7402): 390 nM
- solubility [9]: < 1000 µg/mL
- IC50 (HepG2): 950 nM
- solubility [12]: 3000 µg/mL (≈ 7.78 mM)
- solubility [15]: < 1000 µg/mL
- solubility [16]: < 1000 µg/mL
- solubility [18]: < 1000 µg/mL
- solubility [20]: < 1000 µg/mL
- solubility [21]: < 1000 µg/mL
Compound: C[C@H]1CCC/C=C/[C@@H]2C[C@H](OC(=O)c3cccnc3)C[C@H]2[C@H](O)/C=C/C(=O)O1

- IC50 (Bel-7402): > 1000 nM
- IC50 (HepG2): > 1000 nM
Compound: C[C@H]1CCC/C=C/[C@@H]2C[C@H](OC(=O)CN(C)C)C[C@H]2[C@H](O)/C=C/C(=O)O1

Compound: COC(=O)O[C@@H]1C[C@H]2[C@H](O)/C=C/C(=O)O[C@@H](C)CCC/C=C/[C@@H]2C1
- IC50 (HepG2): > 1000 nM

- IC50 (Bel-7402): 270 nM
- IC50 (HepG2): > 1000 nM
Compound: C[C@H]1CCC/C=C/[C@@H]2C[C@H](O)C[C@H]2[C@H](OC(=O)c2cccnc2)/C=C/C(=O)O1

Source: ChEMBL document CHEMBL5113532, “Design and Characterization of a Natural Arf-GEFs Inhibitor Prodrug CHNQD-01255 with Potent Anti-Hepatocellular Carcinoma Efficacy In Vivo” (J Med Chem, 2022)
